In general, IC50 refers to the point on the concentration scale where inhibition reaches its midpoint. Low readings indicate inhibition by little substance, high ones a need for much substance.

This is an account of results in patent US6218396A, “Substituted pyridino arylpiperazines useful in the treatment of benign prostatic hyperplasia” (Orth-McNeil Pharmaceutical, Inc., priority 1999, dated 2001).

One assay deals with T1, α1a-AR (Homo sapiens, UniProt P35348).
T1 construct: expressed in transfected cells; host or cells: COS cells (pcDNA3, transient DEAE-dextran transfection; membranes)
T1 sequence (P35348 1-466): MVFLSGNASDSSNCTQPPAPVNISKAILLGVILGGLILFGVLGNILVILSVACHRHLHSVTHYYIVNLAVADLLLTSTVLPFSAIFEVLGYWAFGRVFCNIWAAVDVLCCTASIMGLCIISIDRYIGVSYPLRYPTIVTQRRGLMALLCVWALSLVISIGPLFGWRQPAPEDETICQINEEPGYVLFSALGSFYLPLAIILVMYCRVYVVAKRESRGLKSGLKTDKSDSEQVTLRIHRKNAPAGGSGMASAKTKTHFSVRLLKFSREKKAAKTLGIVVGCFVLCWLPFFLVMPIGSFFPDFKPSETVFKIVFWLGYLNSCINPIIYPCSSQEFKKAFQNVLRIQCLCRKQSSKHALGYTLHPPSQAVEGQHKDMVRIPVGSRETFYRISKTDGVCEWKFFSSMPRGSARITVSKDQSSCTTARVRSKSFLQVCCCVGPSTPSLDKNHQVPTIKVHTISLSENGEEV
Nature of the assay: receptor binding assay, [125I]-HEAT, membranes of COS cells expressing α1a-AR. To be noted: [125I]-HEAT 50 pM, human α1a-AR in COS cell membranes; unit 'nanomolar'. The source says:
(§1) The DNA sequences of the three cloned human α1-AR subtypes have been published. […] We used published DNA sequence information to design primers for use in RT-PCR amplification of each subtype to obtain cloned cDNAs. Human poly A+ RNA was obtained from commercially available sources and included hippocampus and prostate samples, sources which have been cited in the literature. For the primary screen a radio ligand binding assay was used which employed membrane preparations from cells expressing the individual cloned receptor cDNAs. Radiolabeled ligands with binding activity on all three subtypes (non-selective) are commercially available ([125I]-HEAT, [3H]-prazosin).
(§2) Each α1 receptor subtype was cloned from poly A+ RNA by the standard method of reverse transcription-polymerase chain reaction (RT-PCR). The following sources of polyA+ RNA were used for the cloning of the α1 receptor subtypes: α1a -AR, human hippocampus and prostate, α1b -AR, human hippocampus, α1d -AR, human hippocampus. The resulting cDNAs were cloned into the pcDNA3 mammalian expression vector (Invitrogen Corp., San Diego Calif.). Each DNA was sequenced for verification and to detect any possible mutations introduced during the amplification process. Any deviation in sequence from the published consensus for each receptor subtype was corrected by site-directed mutagenesis.
(§3) The three α1-AR subtypes (a, b, d) were transfected into COS cells using a standard DEAE-dextran procedure with a chloroquine shock. In this procedure, each tissue culture dish (100 mm) was inoculated with 3.5×10^6 cells and transfected with 10 μg of DNA. Approximately 72 hours post-transfection, the cells were harvested and COS membranes were prepared. Transfected COS cells from 25 plates (100 mm) were scraped and suspended in 15 mL of TE buffer (50 mM Tris-HCl, 5 mM EDTA, pH7.4). The suspension was disrupted with a homogenizer. It was then centrifuged at 1000×g for 10 minutes at […]. The supernatant was centrifuged at 34,500×g for 20 minutes at 4° C. The pellet was resuspended in 5 mL TNE buffer (50 mM Tris-HCl, 5 mM EDTA, 150 mM NaCl, pH7.4). The resulting membrane preparation was aliquoted and stored at -70° C. The protein concentration was determined following membrane solubilization with TritonX-100.
(§4) The ability of each compound to bind to each of the α1-AR subtypes was assessed in a receptor binding assay. [125I]-HEAT, a non-selective α1-AR ligand, was used as the radiolabeled ligand. Each well of a 96-well plate received: 140 μL TNE, 25 μL [125I]-HEAT diluted in TNE (50,000 cpm; final concentration 50 pM), 10 μL test compound diluted in DMSO (final concentration 1 pM-10 μM), […] COS cell membrane preparation expressing one of the three α1-AR subtypes (0.05-0.2 mg membrane protein). The plate was incubated for 1 hour at room temperature and the reaction mixtures were filtered through a Packard GF/C Unifilter filter plate. The filter plate was dried for 1 hour in a vacuum oven. Scintillation fluid ([…]) was added to each well, and the filter plate was counted in a Packard Topcount scintillation counter. Data was analyzed using GraphPad Prism software.

For the next assay, the target named is T2, α1b-AR (Homo sapiens, UniProt P35368).
T2 construct: expressed in transfected cells; host or cells: COS cells (pcDNA3, transient DEAE-dextran transfection; membranes)
T2 sequence (P35368 1-520): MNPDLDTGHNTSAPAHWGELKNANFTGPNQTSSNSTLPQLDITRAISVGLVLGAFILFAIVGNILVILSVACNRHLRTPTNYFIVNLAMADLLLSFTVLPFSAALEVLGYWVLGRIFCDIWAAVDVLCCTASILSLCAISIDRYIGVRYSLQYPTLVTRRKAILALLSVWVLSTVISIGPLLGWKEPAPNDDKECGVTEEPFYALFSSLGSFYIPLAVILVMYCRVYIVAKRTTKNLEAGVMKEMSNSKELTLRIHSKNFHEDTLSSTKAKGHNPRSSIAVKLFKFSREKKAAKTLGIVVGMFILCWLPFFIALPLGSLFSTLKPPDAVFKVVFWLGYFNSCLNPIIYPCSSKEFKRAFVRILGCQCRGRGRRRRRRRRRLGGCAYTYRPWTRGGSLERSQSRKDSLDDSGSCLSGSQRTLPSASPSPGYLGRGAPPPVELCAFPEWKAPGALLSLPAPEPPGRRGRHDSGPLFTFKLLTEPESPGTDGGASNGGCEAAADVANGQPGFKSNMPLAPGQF
Nature of the assay: receptor binding assay, [125I]-HEAT, membranes of COS cells expressing α1b-AR. To be noted: [125I]-HEAT 50 pM, human α1b-AR in COS cell membranes; unit 'nanomolar'.
Description: as §1, §2, §3, §4

For another assay, the target named is T3, α1d-AR (Homo sapiens, UniProt P25100).
T3 construct: expressed in transfected cells; host or cells: COS cells (pcDNA3, transient DEAE-dextran transfection; membranes)
T3 sequence (P25100 1-572): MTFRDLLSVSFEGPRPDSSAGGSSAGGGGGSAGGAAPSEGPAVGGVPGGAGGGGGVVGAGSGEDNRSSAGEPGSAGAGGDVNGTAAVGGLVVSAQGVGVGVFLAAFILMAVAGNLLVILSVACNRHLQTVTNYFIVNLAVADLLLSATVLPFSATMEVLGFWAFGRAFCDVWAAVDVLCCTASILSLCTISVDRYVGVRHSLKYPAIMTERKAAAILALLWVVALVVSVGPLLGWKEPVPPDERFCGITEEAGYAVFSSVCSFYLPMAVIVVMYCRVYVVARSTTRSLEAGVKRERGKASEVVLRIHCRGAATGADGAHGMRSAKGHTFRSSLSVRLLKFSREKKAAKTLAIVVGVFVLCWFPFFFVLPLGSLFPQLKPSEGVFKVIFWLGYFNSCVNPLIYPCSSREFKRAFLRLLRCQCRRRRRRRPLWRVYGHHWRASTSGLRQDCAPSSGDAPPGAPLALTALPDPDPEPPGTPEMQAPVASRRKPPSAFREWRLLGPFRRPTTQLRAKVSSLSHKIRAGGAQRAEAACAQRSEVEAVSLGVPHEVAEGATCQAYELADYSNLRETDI
Nature of the assay: receptor binding assay, [125I]-HEAT, membranes of COS cells expressing α1d-AR. To be noted: [125I]-HEAT 50 pM, human α1d-AR in COS cell membranes; unit 'nanomolar'.
Description: as §1, §2, §3, §4

As to `CC(C)Oc1ccccc1N1CCN(CC(O)CNC(=O)c2cccnc2Oc2ccccc2)CC1` (stereo not drawn) [Compound 3], the results for the IC50 at α1a-AR, on α1b-AR and at α1d-AR were 1.5 nM, 909 nM and 211 nM, respectively.
For the compound `CC(C)Oc1ccccc1N1CCN(CCCNC(=O)c2cccnc2Oc2ccccc2)CC1` [Compound 5], the IC50 at α1a-AR was 0.64 nM; at α1b-AR, 151 nM; on α1d-AR it was 40 nM.
As to `CC(C)Oc1ccccc1N1CCN(C[C@@H](O)CNC(=O)c2cccnc2Oc2ccccc2)CC1` [Compound 8], the IC50 is 0.76 nM on α1a-AR, 668 nM at α1b-AR and 81 nM at α1d-AR.
In the case of `COc1ccc(Oc2ncccc2C(=O)NCC(O)CN2CCN(c3ccccc3OC(C)C)CC2)cc1` (stereo not drawn) [Compound 10], the values for the IC50 on α1a-AR, on α1b-AR and at α1d-AR were 2.4 nM, 1910 nM and 131 nM, respectively.
As for `CC(C)Oc1ccccc1N1CCN(CC(O)CNC(=O)c2cccnc2Nc2cccc(C(F)(F)F)c2)CC1` (stereo not drawn) [Compound 11], the half-maximal inhibitory concentration (IC50) was 25 nM on α1a-AR, 1020 nM at α1b-AR and 79 nM at α1d-AR.
For the compound `CC(C)Oc1ccccc1N1CCN(CC(O)CNC(=O)c2cccnc2Sc2ccc(Cl)cc2)CC1` (stereo not drawn) [Compound 12], the figures for the IC50 at α1a-AR, at α1b-AR and on α1d-AR were 2.6 nM, 806 nM and 299 nM, respectively.
For `COc1ncccc1C(=O)NCC(O)CN1CCN(c2ccccc2OC(C)C)CC1` (stereo not drawn) [Compound 13] the same measures were 3.5 nM, over 2000 nM and 191 nM.
For the compound `COC(CNC(=O)c1cccnc1Oc1ccccc1)CN1CCN(c2ccccc2OC(C)C)CC1` (stereo not drawn) [Compound 16], the IC50 was 2.4 nM at α1a-AR, 1360 nM on α1b-AR and 21 nM at α1d-AR.
For `CC(C)Oc1ccccc1N1CCN(CC(=O)CNC(=O)c2cccnc2Oc2ccccc2)CC1` [Compound 17], the half-inhibitory concentration (IC50) at α1a-AR is 63 nM; on α1b-AR it was 887 nM; on α1d-AR, 546 nM.
Take `Cc1ccc(Oc2ncccc2C(=O)NC[C@H](O)CN2CCN(c3ccccc3OC(C)C)CC2)cc1` [Compound 18]: the IC50 on α1a-AR amounted to 0.51 nM; on α1b-AR, 290 nM; at α1d-AR, 50 nM.
The like results for `CC(C)Oc1ccccc1N1CCN(C[C@@H](O)CNC(=O)c2cccnc2Oc2ccc(Cl)cc2)CC1` [Compound 27] were, in that order, 0.86 nM, 791 nM and 57 nM.
For `Cc1ccc(Oc2ncccc2C(=O)NC[C@@H](O)CN2CCN(c3ccccc3OC(C)C)CC2)cc1` [Compound 28], the IC50 worked out at 25 nM on α1a-AR, 361 nM on α1b-AR and 969 nM at α1d-AR.
For `Cc1ccc(Oc2ncccc2C(=O)NCCCN2CCN(c3ccccc3OC(C)C)CC2)cc1` [Compound 29], the IC50 at α1a-AR is 0.27 nM; on α1b-AR, over 2000 nM; on α1d-AR it was 43 nM.
As to `CC(C)Oc1ccccc1N1CCN(CC(O)CNC(=O)c2cccnc2Oc2ccc(Cl)c(Cl)c2)CC1` (stereo not drawn) [Compound 30], the half-inhibitory concentration (IC50) on α1a-AR came to 2 nM; on α1b-AR it was 2250 nM; at α1d-AR it was 56 nM.
In the case of `CC(C)Oc1ccccc1N1CCN(CC(O)CNC(=O)c2cccnc2Nc2ccccc2)CC1` (stereo not drawn) [Compound 31], the values for the IC50 on α1a-AR, at α1b-AR and on α1d-AR were 25 nM, 736 nM and 25 nM, respectively.
`COc1ccccc1N1CCN(CC(O)CNC(=O)c2cccnc2Oc2ccccc2)CC1` (stereo not drawn) [Compound 32]: the 50% inhibitory concentration (IC50) on α1a-AR came to 30 nM; at α1b-AR, 1570 nM; on α1d-AR, 147 nM.
Turning to `CC(C)Oc1ccccc1N1CCN(CC(O)CNC(=O)c2cccnc2Oc2ccc(C(C)(C)C)cc2)CC1` (stereo not drawn) [Compound 33], the half-maximal inhibitory concentration (IC50) on α1a-AR is 3.3 nM; at α1b-AR, over 2000 nM; on α1d-AR it was 78 nM.
Turning to `CCOc1ccccc1N1CCN(CC(O)CNC(=O)c2cccnc2Oc2ccccc2)CC1` (stereo not drawn) [Compound 34], the IC50 on α1a-AR was determined as 9.1 nM; on α1b-AR, 132 nM; on α1d-AR, 206 nM.
Take `CC(C)Oc1ccccc1N1CCN(C[C@H](O)CNC(=O)c2cccnc2Oc2ccccc2)CC1` [Compound 35]: the half-inhibitory concentration (IC50) on α1a-AR worked out at 10.2 nM; on α1b-AR, 889 nM; on α1d-AR, 314 nM.
With `CC(C)Oc1ccccc1N1CCN(CC(O)CNC(=O)c2cccnc2Oc2ccc(F)cc2)CC1` (stereo not drawn) [Compound 36], the IC50 came out at 1.5 nM at α1a-AR, 1180 nM at α1b-AR and 148 nM at α1d-AR.
As to `CC(C)Oc1ccccc1N1CCN(CC(O)CNC(=O)c2cccnc2Oc2cccc(Cl)c2)CC1` (stereo not drawn) [Compound 37], the IC50 at α1a-AR stood at 0.91 nM; at α1b-AR, 952 nM; on α1d-AR, 180 nM.
With `CC(C)Oc1ccccc1N1CCN(CC(O)CNC(=O)c2cccnc2Oc2cccc(N(C)C)c2)CC1` (stereo not drawn) [Compound 38], the IC50 came to 2 nM on α1a-AR, 972 nM at α1b-AR and 56 nM at α1d-AR.
For `Cc1ccccc1Oc1ncccc1C(=O)NCC(O)CN1CCN(c2ccccc2OC(C)C)CC1` (stereo not drawn) [Compound 39] the same measures were 1.1 nM, 730 nM and 1.7 nM.
On to `COc1ccccc1Oc1ncccc1C(=O)NCC(O)CN1CCN(c2ccccc2OC(C)C)CC1` (stereo not drawn) [Compound 40], for which the half-maximal inhibitory concentration (IC50) on α1a-AR stood at 1.7 nM; on α1b-AR, 580 nM; on α1d-AR, 2.2 nM.
The like results for `Cc1ccc(Oc2ncccc2C(=O)NCC(O)CN2CCN(c3ccccc3OC(C)C)CC2)cc1` (stereo not drawn) [Compound 41] were, in that order, 0.52 nM, 928 nM and 21 nM.
